Test results from PubChem BioAssay (NCI).
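In this assay, cells in 96-well plates receive the compound at five concentrations for 48 hours. Endpoints are linearly interpolated between the surrounding concentrations. The concentration for full growth arrest is given as TGI.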

Assays:
Test in all cases: NCI anticancer screen, dose series, 48 h
A498 renal = tested on: A498 renal
CAKI-1 renal = tested on: CAKI-1 renal
HCT-15 colon = tested on: HCT-15 colon
HT29 colon = tested on: HT29 colon
MOLT-4 leukemia = tested on: MOLT-4 leukemia
RPMI-8226 leukemia = tested on: RPMI-8226 leukemia
SW-620 colon = tested on: SW-620 colon
UACC-257 melanoma = tested on: UACC-257 melanoma

SMILES	TGI (A498 renal) [µM]	TGI (CAKI-1 renal) [µM]	TGI (HCT-15 colon) [µM]	TGI (HT29 colon) [µM]	TGI (MOLT-4 leukemia) [µM]	TGI (RPMI-8226 leukemia) [µM]	TGI (SW-620 colon) [µM]	TGI (UACC-257 melanoma) [µM]
ClCCN1CCC2(CC1)SSC1(CCN(CCCl)CC1)S2	> 100	33.4	> 100	> 100	> 100	57.1	> 100	> 100
CC(=O)NC(Cc1ccc(O)cc1)C(=O)O (configuration not stated)	> 100	> 100	> 100	> 100	> 100	> 100	> 100	> 100
NC(N)=N/N=C/c1c(-c2ccc(N)cc2)nc2sccn12	68.2	> 100	> 100	56.8	73.9	99.2	68.2	> 100
O=c1[nH]c(Nc2cccc(CC(F)(F)F)c2)nc2nc[nH]c12	> 100	> 100	> 100	> 100		> 100	> 100	> 100
CC1(C)OC(=O)N(c2ccccc2)C12C=Cc1cc([N+](=O)[O-])cc([N+](=O)[O-])c1O2 (configuration not stated)	> 100	> 100	> 100	> 100	> 100	> 100	> 100	> 100
N#Cc1c(-c2ccccc2)/c(=C\Nc2cccc(C(F)(F)F)c2)c(=O)n2c1nc1ccccc12	> 100	14.2	> 100			39.9	> 100	> 100
Cc1ccccc1C(=O)N1CCc2c([nH]c3ccccc23)C1	51.4	79.5	62.1	44.7	80	51.3	> 100	58.2
COc1ccc(C2CC(c3c(O)ccc4ccccc34)=NN2C(C)=O)cc1OC (configuration not stated)	63.4	> 100	> 100	> 100	53.6	54.4	> 100	> 100
COC(=O)c1ccccc1CC1Cc2ccc3c(c2C1=O)CCCC3 (configuration not stated)	> 100	> 100	> 100	> 100	46.5	> 75.5	> 100	> 100
COc1ccc(-c2cc(O)c3nc4ccccc4n3c2)cc1	> 100	> 100	> 100	> 100	> 100	> 100	> 100	> 100
CC[C@@H]1CC[C@@H]2[C@H](CC[C@]3(C)[C@@H](OC(C)=O)CC[C@@H]23)[C@H]1COC(C)=O	94.4	> 100	56	39.5	37	48.7	> 100	65.6
COc1ccc(-c2c(C#N)c(-c3ccc(C)cc3)n(NS(=O)(=O)c3ccc(C)cc3)c(=O)c2C#N)cc1	> 100	> 100	> 100	> 100	57.4	46.3	> 100	> 100
COc1cc(C2c3cc4c(cc3OC(N3CCOCC3)C2C)OCO4)ccc1O (configuration not stated)	51.4	71.1	> 100	> 100	60.7	19.9	> 100	> 100
CCOC(=O)c1csc(NC(=O)CN2CCOCC2)n1	> 100	> 100	> 100	> 100	48.5	> 100	> 100	> 100
CCCN(C(=O)c1ccccc1)C(C#N)c1ccc(C(C#N)N(CCC)C(=O)c2ccccc2)cc1 (configuration not stated)	> 100	> 100	> 100	> 100	> 100	> 100	> 100	> 100
CCCCCCc1cc2cc(-c3csc(CC#N)n3)c(=O)oc2cc1O	> 100	> 100	> 100	> 100	> 100	> 100	> 100	> 100
O=[N+]([O-])c1ccc2c(c1)c(OCc1ccccc1)nn2Cc1ccccc1	> 100	> 100	> 100	> 100	> 100	> 100	> 100	> 100
Cc1cc(Cc2cc(C)c(N)cc2N)c(N)cc1N	> 100	> 100	> 100	> 100	> 100	> 100	> 100	> 100
N#CC1(C#N)N[C@@H](c2ccsc2)[C@H]2C(=O)N(c3ccccc3)C(=O)[C@H]21	> 100	> 100		> 100	> 100	53.5	> 100	> 100
COc1ccc(COCCOCc2nc(C#N)c(N)o2)cc1	> 100	> 100	> 100	> 100	> 100	> 100	> 100	> 100
O=C(N/N=C(/COc1ccc(Cl)cc1)N=Cc1ccncc1)c1ccncc1	> 100	> 100	> 100	> 100	> 100	> 100	> 100	> 100
C[C@@H]1CC[C@]2(C(=O)O)CC[C@]3(C)C(=CC[C@@H]4[C@@]5(C)CC[C@H](O)C(C)(C)[C@@H]5CC[C@]43C)[C@@H]2[C@]1(C)O	33.3	27.3	24.2		18.3	33.9	42.1	19.8
CC1(C)N=[N+]([O-])C1(C)C	> 100	> 100	> 100	> 100	> 100	> 100	> 100	> 100
Cc1ccc(N=NC(=Nc2ccccc2)c2ccc(N(CCC#N)CCC#N)cc2)cc1	> 100	> 100	> 100	> 100	> 100	> 100	> 100	54
